Data: article PMC6154719 (Molecules : A Journal of Synthetic Chemistry and Natural …, 2017)

Legend:
Assay type in all cases: in vitro ADME
CBR1 = target: T1, CBR1 (Homo sapiens, UniProt P16152); assay: CBR1 activity in human liver subcellular fraction; conditions: 100 µM sesquiterpene, control 6.62 ± 1.84
T1 construct: Frozen liver (both rat and human) was thawed; from tissue; host or cells: human liver cytosolic fraction
T1 sequence (P16152 1-277): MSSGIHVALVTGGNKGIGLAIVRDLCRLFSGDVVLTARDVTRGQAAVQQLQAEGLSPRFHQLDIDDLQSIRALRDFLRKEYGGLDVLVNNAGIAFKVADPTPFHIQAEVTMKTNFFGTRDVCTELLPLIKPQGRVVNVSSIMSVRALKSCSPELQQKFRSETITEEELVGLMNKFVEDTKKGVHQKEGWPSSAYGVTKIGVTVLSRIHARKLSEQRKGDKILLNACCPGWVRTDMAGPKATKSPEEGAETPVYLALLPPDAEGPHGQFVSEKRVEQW
Protocol: (§1) Enzyme activities were assayed in human and rat liver cytosolic and microsomal fractions. The enzyme assays (each performed in 4–8 replicates) were repeated three times (HPLC measurement of CYP activities was repeated only twice, Table 3). Inhibition studies were carried out by incubation of specific substrates in the presence of sesquiterpenes (in the range 0–100 µM).
The assays of all other enzymes were based on spectrophotometric detection of product formed or detection of decreasing substrate/cofactor levels using microplate reader Tecan Infinite M200 in cytosolic or microsomal fractions. Enzyme activities were determined using slight modifications of previously-published methods: carbonyl reducing enzymes (AKR1A, AKR1C, CBR1 [45], NQO1 [46]), UDP-glucuronosyltransferase (UGT [47]), sulfotransferase (SULT [48]), and cytosolic glutathione-S-transferase (GST [49]).
(§2) Sesquiterpenes CNER, TNER and FAR, non-volatile liquids, were pipetted, and proper concentration was calculated according to density. All compounds were dissolved in DMSO. The final solvent concentration in the inhibition assays was 1%, which had no effect on the enzyme activity (data not shown). Non-enzymatic interference of sesquiterpenes with some compounds in the reaction mixtures (e.g., fluorescence enhancing or quenching) was considered and excluded. All experiments were performed in three replicates, if not stated otherwise.
(§3) CNER, TNER and FAR at a fixed concentration of 100 µM were screened for inhibition of cytosolic AKR1A1, AKR1C, CBR1, NQO1, SULT, and GST, and microsomal CYPs and UGT. The degree of inhibition caused by sesquiterpenes was compared with non-inhibited control reactions, which contained solvent without sesquiterpenes.

CYP3A4/5 [1] = assay: CYP3A4/5 midazolam 1′-hydroxylation in human liver microsomes (HPLC); conditions: substrate midazolam, n = 2
Protocol: as §1
(§4) Enzyme activities of individual CYP forms were measured according to established protocols. The following microsomal CYP activities were tested: CYP2A6, coumarin 7-hydroxylation; CYP2B6, 7-ethoxy-4-(trifluoromethyl)coumarin 7-deethylation, CYP2C9, diclofenac 4′-hydroxylation, CYP2C19 assay, S-mephenytoin 4′-hydroxylation, CYP2D6 on bufuralol 1′-hydroxylation, CYP2E1, chlorzoxazone 6-hydroxylation and CYP3A4, testosterone 6β-hydroxylation, and midazolam 1′-hydroxylation. Activities were measured using the Prominence HPLC system (Shimadzu, Kyoto, Japan), equipped with a LiChroCART 250-4 LiChrospher 100 RP-18 column or Chromolith®HighResolution RP-18 end-capped column (Merck, Darmstadt, Germany) and UV or fluorescence detection, according to the cited literature. […] CYP1A2, 7-ethoxyresorufin O-deethylation, and CYP3A4/2B6 (human), CYP2B1 (rat), benzyloxyresorufin O-debenzylation were measured using the microplate reader Tecan Infinite M200 (Tecan Group; Mannedorf, Switzerland). […]

CYP3A4/5 [2] = assay: CYP3A4/5 testosterone 6β-hydroxylation in human liver microsomes (HPLC); conditions: substrate testosterone, n = 2
Protocol: as §1
(§5) Enzyme activities of individual CYP forms were measured according to established protocols. The following microsomal CYP activities were tested: CYP2A6, coumarin 7-hydroxylation; CYP2B6, 7-ethoxy-4-(trifluoromethyl)coumarin 7-deethylation, CYP2C9, diclofenac 4′-hydroxylation, CYP2C19 assay, S-mephenytoin 4′-hydroxylation, CYP2D6 on bufuralol 1′-hydroxylation, CYP2E1, chlorzoxazone 6-hydroxylation and CYP3A4, testosterone 6β-hydroxylation, and midazolam 1′-hydroxylation. Activities were measured using the Prominence HPLC system (Shimadzu, Kyoto, Japan), equipped with a LiChroCART 250-4 LiChrospher 100 RP-18 column or Chromolith®HighResolution RP-18 end-capped column (Merck, Darmstadt, Germany) and UV or fluorescence detection, according to the cited literature. Further incubation details are described either in the corresponding references, as well as in the papers from this laboratory e.g., [42, 43, 44]. CYP1A2, 7-ethoxyresorufin O-deethylation, and CYP3A4/2B6 (human), CYP2B1 (rat), benzyloxyresorufin O-debenzylation were measured using the microplate reader Tecan Infinite M200 (Tecan Group; Mannedorf, Switzerland).
(§6) The concentration of sesquiterpenes required for 50% inhibition of enzyme activity, the IC50 value, was determined. Their final concentrations in the reaction mixture were proposed to cover the entire inhibitory range of these compounds (1–100 µM). The IC50 values for each sesquiterpene were determined by plotting sigmoidal dose response curves of specific enzyme activity vs. logarithm of sesquiterpene concentration using GraphPad Prism version 6.07 for Windows (GraphPad Software Inc., La Jolla, CA, USA).

CYP2A6 = target: T2, CYP2A6 (Homo sapiens, UniProt P11509); assay: CYP2A6 coumarin 7-hydroxylation in human liver microsomes (HPLC); conditions: substrate coumarin, n = 2
T2 construct: other CYP-mediated activities in human liver microsomes; from tissue; host or cells: human liver microsomal fraction
T2 sequence (P11509 whole entry): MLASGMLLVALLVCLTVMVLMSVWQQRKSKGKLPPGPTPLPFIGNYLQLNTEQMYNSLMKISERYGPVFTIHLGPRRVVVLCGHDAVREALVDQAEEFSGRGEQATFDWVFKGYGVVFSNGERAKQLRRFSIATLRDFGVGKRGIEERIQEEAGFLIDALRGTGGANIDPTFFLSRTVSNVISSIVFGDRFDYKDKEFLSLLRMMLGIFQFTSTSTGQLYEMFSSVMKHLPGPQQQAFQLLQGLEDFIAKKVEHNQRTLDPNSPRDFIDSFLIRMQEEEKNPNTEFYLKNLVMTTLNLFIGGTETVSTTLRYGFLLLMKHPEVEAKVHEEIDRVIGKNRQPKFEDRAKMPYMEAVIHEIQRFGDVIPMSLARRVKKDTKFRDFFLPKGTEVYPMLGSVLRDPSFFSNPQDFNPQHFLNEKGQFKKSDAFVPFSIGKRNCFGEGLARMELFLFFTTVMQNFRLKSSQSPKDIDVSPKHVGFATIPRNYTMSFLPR
Protocol: as §1, §4

CYP2C19 = target: T3, CYP2C19 (Homo sapiens, UniProt P33261); assay: CYP2C19 S-mephenytoin 4′-hydroxylation in human liver microsomes (HPLC); conditions: substrate S-mephenytoin, n = 2
T3 construct: other CYP-mediated activities in human liver microsomes; from tissue; host or cells: human liver microsomal fraction
T3 sequence (P33261 whole entry): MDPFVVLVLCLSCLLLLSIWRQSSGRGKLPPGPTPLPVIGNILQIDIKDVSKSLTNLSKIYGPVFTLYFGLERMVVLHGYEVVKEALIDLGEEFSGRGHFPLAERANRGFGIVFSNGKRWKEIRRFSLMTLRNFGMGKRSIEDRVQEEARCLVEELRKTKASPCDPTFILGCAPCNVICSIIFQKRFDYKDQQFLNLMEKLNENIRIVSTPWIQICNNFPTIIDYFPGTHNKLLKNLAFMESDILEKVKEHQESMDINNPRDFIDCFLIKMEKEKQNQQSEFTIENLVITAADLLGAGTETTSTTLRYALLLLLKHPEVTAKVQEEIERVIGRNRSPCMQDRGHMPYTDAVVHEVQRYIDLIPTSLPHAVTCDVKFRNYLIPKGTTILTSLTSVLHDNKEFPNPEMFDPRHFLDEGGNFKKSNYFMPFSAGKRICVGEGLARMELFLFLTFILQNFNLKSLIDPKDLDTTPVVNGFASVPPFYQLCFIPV
Protocol: as §1, §4

[3] = test system: CYP2B/3A (CYP2B1, BROD activity); assay: CYP2B/3A (BROD activity, benzyloxyresorufin O-debenzylation) in rat liver microsomes; conditions: probe benzyloxyresorufin (O-debenzylation), 0.5-5.0 µM; rat liver microsomes, BROD activity
Protocol: as §1, §5, §2, §3, §6
(§7) The kinetic inactivation study of the CYP1A2 (EROD activity) and CYP2B/3A (BROD activity), both in rat and human, with TNER, was performed to find out the mechanism of enzyme inhibition by this sesquiterpene. Mechanism of EROD and BROD inhibition was tested at the final ethoxyresorufin or benzyloxyresorufin concentrations 0.5–5.0 µM. The concentration of TNER was 5.0 µM.
(§8) Experimental data were fitted to the Michaelis-Menten equation, basic kinetic parameters were determined using the program GraphPad Prism version 6.07 for Windows. The type of inhibition was estimated using a Lineweaver-Burk (double-reciprocal) plot.

[4] = test system: CYP2B/3A (CYP3A4/2B6, BROD activity); assay: CYP2B/3A (BROD activity, benzyloxyresorufin O-debenzylation) in human liver microsomes; conditions: probe benzyloxyresorufin (O-debenzylation), 0.5-5.0 µM; human liver microsomes, BROD activity
Protocol: as §1, §5, §2, §3, §6, §7, §8

[5] = human, liver microsomes, probe testosterone

C=CC(C)(O)CC/C=C(/C)CCC=C(C)C (stereo not drawn) [CNER, cis-nerolidol]
Specific activity, CBR1 (CBR1): 7.17 ± 0.56 nmol/mg/min | IC50 (CYP3A4/5 [1]; human, liver microsomes, probe midazolam): 66 µM | IC50 (CYP3A4/5 [1]): 66.1 ± 30.5 µM | IC50 (CYP3A4/5 [2]; [5]): 186 ± 125 µM

CC(C)=CCC/C(C)=C/CC/C(C)=C/CO [FAR, farnesol]
IC50 (CYP2A6): 85.9 ± 22.9 µM | Specific activity, CBR1 (CBR1): 6.83 ± 0.70 nmol/mg/min

C=CC(C)(O)CC/C=C(\C)CCC=C(C)C (stereo not drawn) [TNER, trans-nerolidol]
IC50 (CYP2C19): 76.4 ± 52.1 µM | Ki [3]: 0.55 ± 0.11 µM | Specific activity, CBR1 (CBR1): 5.67 ± 0.67 nmol/mg/min | Ki [4]: 2.41 ± 0.33 µM | IC50 (CYP3A4/5 [2]; [5]): 51 µM | IC50 (CYP3A4/5 [2]): 50.5 ± 13.5 µM
